Reference: US10183919B2 (priority 2014, dated 2019)
Like-named read-outs stand apart in the source and are kept apart here.

Molecular target: T1, Human MOR (Homo sapiens, UniProt P35372)
T1 construct: expressed in transfected cells; host or cells: HEK-293T
Test: cell-based
From the text: Transfection. Human or mouse MOR cDNA was transfected alongside GαoB with RLuc8 inserted at position 91 (GαoB-RLuc8), Gβ1 (β1), and Gγ2 fused to the full-length mVenus at its N terminus (mVenus-γ2) into HEK-293T cells (5×10^6 cells/plate) in 10-cm dishes using PEI (Polysciences Inc.; Warrington, Pa.) in a 1:1 ratio diluted in Opti-MEM (Life Technologies Corp.; Grand Island, N.Y.) to assay for G protein activation as described previously (Rives, M.-L. et al. J. Biol. Chem. 2012, 287, 27050-4; Negri, A.; Rives, M.-L.; Caspers, M. J. et al. J. Chem. Inf. Model. 2013, 53, 521-526). Cells were maintained in the Dulbecco's Modified Eagle Medium (high glucose #11965; Life Technologies) supplemented with 10% FBS (Premium Select, Atlanta Biologicals; Atlanta, Ga.) and 100 U/mL penicillin and 100 μg/mL streptomycin (#15140, Life Technologies). After 24 hours the media was changed, and the experiment was performed 24 hours later (48 hours after transfection).
BRET. Transfected cells were dissociated and resuspended in phosphate-buffered saline (PBS). Approximately 200,000 cells/well were added to a black-framed, white well 96-well plate (#60050; Perkin Elmer; Waltham, Mass.). The microplate was centrifuged and the cells were resuspended in PBS. Then 5 μM of the luciferase substrate coelenterazine H was added to each well for 5 minutes. Following coelenterazine H addition, ligands were added and the BRET signal was measured at 5 minutes on a PHERAstar FS plate reader. Quantification of the BRET signal required calculating the ratio of the light emitted by the energy acceptor, mVenus (510-540 nm), over the light emitted by the energy donor, RLuc8 (485 nm). […] Dose response curves were fit using three-parameter logistics equation in GraphPad Prism 6.

[1] = BRET G protein activation, HEK-293T, mean ± SEM of independent trials, read-out: EC50 Human MOR

T1 sequence (P35372 whole entry): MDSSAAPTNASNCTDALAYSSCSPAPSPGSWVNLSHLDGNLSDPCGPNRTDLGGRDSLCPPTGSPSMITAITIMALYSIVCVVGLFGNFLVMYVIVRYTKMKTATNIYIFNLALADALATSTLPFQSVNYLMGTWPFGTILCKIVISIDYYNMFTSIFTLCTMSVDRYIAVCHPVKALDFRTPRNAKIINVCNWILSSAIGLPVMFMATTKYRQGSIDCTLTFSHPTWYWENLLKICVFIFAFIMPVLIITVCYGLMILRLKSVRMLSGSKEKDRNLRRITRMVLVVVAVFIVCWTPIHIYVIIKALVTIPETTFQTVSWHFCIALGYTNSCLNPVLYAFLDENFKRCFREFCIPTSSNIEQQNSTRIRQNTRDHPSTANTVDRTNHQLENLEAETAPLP

With CCOC(=O)CCCCCCNC1c2ccc(Cl)cc2N(C)S(=O)(=O)c2ccccc21 (centres unmarked) [compound 70, Ethyl 7-((8chloro-6-methyl-5,5-dioxido-6,11-dihydrodibenzo[c,f][1,2]thiazepin-11-yl)amino)heptanoate] the EC50 was < 10 µM.

In the case of COCCCNC1c2ccccc2N(C)S(=O)(=O)c2cc([S+](C)[O-])ccc21 (mixture of isomers) [compound 55, 11-((3-Methoxypropyl)amino)-6-methyl-3-(methylsulfinyl)-6,11-dihydrodibenzo[c,f][1,2]thiazepine 5,5-dioxide], the EC50 is reported as < 20 µM.

In the case of CCOCCCNC1c2ccccc2N(C)S(=O)(=O)c2cc(I)ccc21 (centres unmarked) [compound 76, 11-((3-Ethoxypropyl)amino)-3-iodo-6-methyl-6,11-dihydrodibenzo [c,f][1,2]thiazepine 5,5-dioxide], the EC50 is reported as 0.145 µM.

For COCCCNC1c2ccccc2N(C)S(=O)(=O)c2cc(OC)ccc21 (centres unmarked) [compound 27, 3-Methoxy-11-((3-methoxypropyl)amino)-6-methyl-6,11-dihydrodibenzo [c,f][1,2]thiazepine 5,5-dioxide], the EC50 was < 10 µM.

With CC(C)OCCCNC1c2ccccc2N(C)S(=O)(=O)c2cc(Cl)ccc21 (centres unmarked) [compound 35, 3-Chloro-11-((3-isopropoxypropyl)amino)-6-methyl-6,11-dihydrodibenzo [c,f][1,2]azepine 5,5-dioxide] the EC50 was < 10 µM.

With CN1CCCC1CCNC1c2ccccc2N(C)S(=O)(=O)c2cc(Cl)ccc21 (centres unmarked) [compound 47] the EC50 was < 20 µM.

For COCCNC1c2ccccc2N(C)S(=O)(=O)c2cc(Cl)ccc21 (centres unmarked) [compound 42, 3-Chloro-11-((2-methoxyethyl)amino)-6-methyl-6,11-dihydrodibenzo [c,f][1,2]thiazepine 5,5-dioxide], the EC50 was < 10 µM.

“7-((3-Iodo-6-methyl-5,5-dioxido-6,11-dihydrodibenzo [c,f][1,2]thiazepin-11-yl)amino)heptanoic acid hydrochloride salt [compound 84]” was tested, and the EC50 [1] was 0.04 µM.

Molecule CCOCCCNC1c2ccccc2N(C)S(=O)(=O)c2cc(Br)ccc21 (centres unmarked) [compound 71, 3-Bromo-11-((3-ethoxypropyl)amino)-6-methyl-6,11-dihydrodibenzo [c,f][1,2]thiazepine 5,5-dioxide] has an EC50 [1] of 0.222 ± 0.078 µM.

For CCOC(=O)CCCCCCNC1c2ccc(Cl)cc2S(=O)(=O)N(C)c2ccsc21 (centres unmarked) [compound 79, Ethyl 7-((7-chloro-4-methyl-5,5-dioxido-4,10-dihydrobenzo[f]thieno[3,2-c][1,2]thiazepin-10-yl)amino)heptanoate], the EC50 was < 10 µM.

COC(C)CCNC1c2ccccc2N(C)S(=O)(=O)c2cc(Cl)ccc21 (mixture of isomers) [compound 67, 3-Chloro-11-((3-methoxybutyl)amino)-6-methyl-6,11-dihydrodibenzo [c,f][1,2]thiazepine 5,5-dioxide] was tested, and the EC50 was < 10 µM.

For CCOCCCNC1c2ccc(Cl)cc2S(=O)(=O)N(C)c2ccsc21 (centres unmarked) [compound 78, 7-Chloro-10-((-ethoxypropyl)amino)-4-methyl-4,10-dihydrobenzo[f]thieno[3,2-c][1,2]thiazepine 5,5-dioxide], the EC50 was < 10 µM.

With COCCCNC1c2ccccc2N(C)S(=O)(=O)c2cc(Br)ccc21 (centres unmarked) [compound 53, 3-Bromo-11-((3-methoxypropyl)amino)-6-methyl-6,11-dihydrodibenzo[c,f] [1,2]thiazepine 5,5-dioxide] the EC50 was 0.0741 ± 0.0179 µM.

Work on COCCCNC1c2ccccc2N(C)S(=O)(=O)c2cc(I)ccc21 (centres unmarked) [compound 48, 3-Iodo-11-((3-methoxypropyl)amino)-6-methyl-6,11-dihydrodibenzo [c,f][1,2]thiazepine 5,5-dioxide] yielded an EC50 of 0.0152 ± 0.0069 µM.

For COCCCNC1c2ccccc2N(C)S(=O)(=O)c2cc(SC(C)C)ccc21 (centres unmarked) [compound 63, 3-(Isopropylthio)-11-((3-methoxypropyl)amino)-6-methyl-6,11-dihydrodibenzo[c,f][1,2]thiazepine 5,5-dioxide], the EC50 was < 10 µM.

For CN1c2ccccc2C(NCCCC(F)(F)F)c2ccc(Cl)cc2S1(=O)=O (centres unmarked) [compound 28, 3-Chloro-6-methyl-11-((4,4,4-trifluorobutyl)amino)-6,11-dihydrodibenzo [c,f][1,2]thiazepine 5,5-dioxide], the EC50 was < 10 µM.

With COCCCNC1c2ccccc2N(C)S(=O)(=O)c2cc(Oc3ccccc3)ccc21 (centres unmarked) [compound 29, 11-((3-Methoxypropyl)amino)-6-methyl-3-phenoxy-6,11-dihydrodibenzo [c,f][1,2]thiazepine 5,5-dioxide] the EC50 was < 10 µM.

CCOC(=O)CCCCCCNC1c2ccccc2N(CC)S(=O)(=O)c2ccccc21 (centres unmarked) [compound 66, Ethyl 7-((6-ethyl-5,5-dioxido-6,11-dihydrodibenzo[c,f][1,2]thiazepin-11-yl)amino)heptanoate] was tested, and the EC50 was < 10 µM.

CN1c2ccccc2C(NCCCCCCC2=NCCO2)c2ccc(Cl)cc2S1(=O)=O (centres unmarked) [compound 58, 3-Chloro-11-((6-(4,5-dihydrooxazol-2-yl)hexyl)amino)-6-methyl-6,11-dihydrodibenzo[c,f][1,2]thiazepine 5,5-dioxide] was tested, and the EC50 was < 10 µM.

With COCCCNC1c2ccccc2N(C)S(=O)(=O)c2cc(F)ccc21 (centres unmarked) [compound 40, 3-Fluoro-11-((3-methoxypropyl)amino)-6-methyl-6,11-dihydrodibenzo[c,f] [1,2]thiazepine 5,5-dioxide] the EC50 was 5.53 ± 0.25 µM.

For COCCCNC1c2ccc(Cl)cc2N(C)S(=O)(=O)c2ccccc21 (centres unmarked) [compound 69, 8-Chloro-11-((3-methoxypropyl)amino)-6-methyl-6,11-dihydrodibenzo [c,f][1,2]thiazepine 5,5-dioxide], the EC50 was < 20 µM.

COCCCNC1c2ccc(Cl)cc2S(=O)(=O)N(C)c2ccsc21 (centres unmarked) [compound 77, 7-Chloro-10-((3-methoxypropyl)amino)-4-methyl-4,10-dihydrobenzo[f]thieno[3,2-c][1,2]thiazepine 5,5-dioxide] was tested, and the EC50 was < 10 µM.

COCCCNC1c2ccccc2N(C)S(=O)(=O)c2cc(OC(C)=O)ccc21 (centres unmarked) [compound 59, 11-((3-Methoxypropyl)amino)-6-methyl-5,5-dioxido-6,11-dihydrodibenzo[c,f][1,2]thiazepin-3-yl acetate] was tested, and the EC50 was < 10 µM.

For CN1c2ccccc2C(NCCCCCO)c2ccc(Cl)cc2S1(=O)=O (centres unmarked) [compound 30, 3-Chloro-11-((5-hydroxypentyl)amino)-6-methyl-6,11-dihydrodibenzo [c,f][1,2]thiazepine 5,5-dioxide], the EC50 was > 50 µM.

In the case of CCCCCCCNC1c2ccccc2N(C)S(=O)(=O)c2cc(Cl)ccc21 (centres unmarked) [compound 26, 3-Chloro-11-(heptylamino)-6-methyl-6,11-dihydrodibenzo [c,f][1,2]thiazepine 5,5-dioxide], the EC50 is reported as < 10 µM.

For CCOC(=O)CCCCCCNC1c2ccccc2N(C)S(=O)(=O)c2ccc(Cl)cc21 (centres unmarked) [compound 61, Ethyl 7-((2-chloro-6-methyl-5,5-dioxido-6,11-dihydrodibenzo[c,f] [1,2]thiazepin-11-yl)amino)heptanoate], the EC50 was < 10 µM.

In the case of COCCCNC1c2ccccc2S(=O)(=O)N(C)c2ccsc21 (centres unmarked) [compound 7, 10-((3-Methoxypropyl)amino)-4-methyl-4,10-dihydrobenzo[f]thieno[3,2-c][1,2]thiazepine 5,5-dioxide], the EC50 is reported as < 10 µM.

With CCOC(=O)CCCCCCNC1c2ccccc2S(=O)(=O)N(C)c2c(O)cccc21 (centres unmarked) [compound 62] the EC50 [1] was > 20 µM.

With CCSc1ccc2c(c1)S(=O)(=O)N(C)c1ccccc1C2NCCCOC (centres unmarked) [compound 64, 3-(Ethylthio)-11-((3-methoxypropyl)amino)-6-methyl-6,11-dihydrodibenzo[c,f][1,2]thiazepine 5,5-dioxide] the EC50 was < 10 µM.
